≈ marks a conversion by molar mass, not a printed value. Where two headings read alike, the source gives them in different places.
Experiments:
[1] = test system: Huh7 (human hepatoma cells); settings: cited from earlier work
[2] = test system: P. falciparum W2; parameters: method as in earlier work; settings: Novartis HTS 2008; ref (21); cited from earlier work
[3] = test system: P. falciparum 3D7; parameters: method as in earlier work; settings: Novartis HTS 2008; ref (21); cited from earlier work
[4] = test system: P. falciparum 3D7; experiment: Method I growth-inhibition assay (SYBR Green I, 96 h); format: cell-based; settings: Plasmodium falciparum
Text: Nonlinear regression as implemented in GraphPad Prism 7.00 (log(inhibitor) vs response – variable slope (four parameters)) was used to fit the measured data to interpolate the IC50 value from the curve. No specific model was applied. Data was preprocessed by normalizing according to the following formula: […]
(§1) eq 1: Fluorescence data normalization [drawing 2] where y is the fluorescence signal in each well, yminimum is the background fluorescence, and ymaximum is the highest measured fluorescence signal in the untreated wells. Drug concentrations (in μM) were transformed to the log(10)of the values. Means of each independent experiment were plotted as individual values, and the SD of the mean from the means shown as error bars. […] In case of transgenic cell lines, the built-in comparison Akaike’s information criteria (AICc) method was applied to the Log IC50s of the different cell lines. The test calculates a percentage probability of the simpler model “Log IC50 is the same for datasets” being correct. The test for homoscedasticity was performed to confirm if no weighting of values was appropriate.

[5] = test system: P. falciparum Dd2; experiment: Method III growth inhibition assay (HRP2-ELISA, 3 days), Dd2; format: cell-based, Plasmodium falciparum; settings: Plasmodium falciparum, DD2, chloroquine-resistant Dd2, method III
[6] = test system: P. falciparum 3D7; experiment: Method III growth inhibition assay (HRP2-ELISA, 3 days), 3D7; format: cell-based, Plasmodium falciparum
[7] = test system: P. falciparum 3D7 MOCK cell line; experiment: Growth inhibition of MOCK cell line (vector backbone only); format: cell-based; settings: Plasmodium falciparum, 95% CI in brackets
Text: (§2) The open reading frame (ORF) encoding 1-deoxy-D-xylulose-5-phosphate synthase (PfDXPS; PF3D7_1337200) was amplified from genomic DNA isolated from unsynchronized P. falciparum 3D7 cultures using the Platinum PCR SuperMix High Fidelity (Invitrogen). Forward and reverse primers contained restriction sites for KpnI and AvrII in sense and antisense orientation, respectively (oligonucleotides pfDXPS-Kpn1-S: […]; pfDXPSmyc-Avr2-AS: […] ). PCR products and the transfection vector pARL1a-hDHFR PfARG-GFP were digested with KpnI and AvrII, purified (Gel extraction Kit and PCR purification kit; Qiagen), and cloned into the transfection vector yielding the construct for overexpression pARL-DXS-strep. XL 10-Gold E. coli ultracompetent cells (Agilent Technologies) were transformed with the generated construct to amplify the plasmid and colonies checked using restriction analysis and sequencing of the plasmid. Bacterial clones carrying the overexpression construct and the empty pARL1a vector (MOCK plasmid) were amplified in overnight cultures, isolated (Plasmid Maxi Kit; QIAGEN), and subsequently used to transfect P. falciparum 3D7 ring-stage parasites, as already described.[59] Briefly, 120 μg of plasmid DNA was centrifuged and air-dried, and the pellet was resuspended in TE buffer and cytomix reagent and mixed with the P. falciparum culture. Parasites were transfected using electroporation and selected with WR 99210. The generation and characterization of the PfTPK overexpression cell line has been reported before.[60]
(§3) P. falciparum cultures were treated as described in method I. For target specification toward PfTPK and PfDXPS, compounds were tested in comparison against overexpressing cell lines and the respective MOCK line containing only the transfected vector backbone. Parasite viability/proliferation was determined.

[8] = test system: P. falciparum 3D7-TPK+; experiment: Growth inhibition of PfTPK overexpressing parasites (3D7-TPK+); format: cell-based; settings: Plasmodium falciparum, 3D7, read-out: PfTPK IC50
Procedure: as §3, with “determined. Analysis of the IC50 values and interpretation of the curves was performed, as described in Section 4.1.2.44.” for “determined.”
as §1

[9] = test system: Hep G2 cells; experiment: Hep G2 viability assay (counter screen); format: cell-based, human; settings: for IC50: Homo sapiens, HepG2, 48 h, cytotoxicity, 48 h
Procedure: HepG2 cells (2 × 10^5 cells per well) were seeded in 24-well, flat-bottomed plates. Culturing of cells, incubations, and OD measurements were performed as described previously with small modifications.[58] 24 h after seeding the cells, the incubation was started by the addition of compounds in a final DMSO concentration of 1%. The metabolic activity of the living cell mass was determined after 48 h. At least three independent measurements were performed for each compound. The IC50 values were determined during logarithmic growth using GraphPad Prism software. All experiments were performed at least in triplicate, and data reported represent the mean ± SD.

[10] = test system: P. falciparum NF54; experiment: Method II growth-inhibition assay (PicoGreen, 3 days), NF54; format: cell-based; settings: Plasmodium falciparum; chloroquine-sensitive NF54, method II
Text: (§4) Fidock (Columbia University).

[11] = test system: P. falciparum 3D7; experiment: Method II growth-inhibition assay (PicoGreen, 3 days), 3D7; format: cell-based; settings: Plasmodium falciparum, 3D7, method II
Text: as §4

[12] = test system: Mycobacterium tuberculosis H37Rv strain; parameters: method as in PMID 36320685; settings: cited from earlier work
[13] = test system: P. falciparum 3D7-DXPS+; experiment: Growth inhibition of PfDXPS overexpressing parasites (3D7-DXPS+); format: cell-based; settings: Plasmodium falciparum, 3D7, read-out: PfDXPS IC50
Text: as §2, §3

[14] = Kinetic solubility determination; format: physicochemical; settings: PBS buffer and 2% DMSO; for solubility at 5 min: PBS with 2% DMSO, aqueous buffer, kinetic from dmso stock, read-out: Max. solubility
Procedure: The desired compounds were sequentially diluted in DMSO in a 96-well plate. 3 μL of each well was transferred into another 96-well plate and mixed with 147 μL of PBS. Plates were shaken for 5 min at 600 rpm at room temperature (r.t.), and the absorbance at 620 nm was measured. Absorbance values were normalized by blank subtraction and plotted using GraphPad Prism 8.4.2 (GraphPad Software, San Diego, California, USA). Solubility (S) was determined based on the First X value of AUC function using a threshold of 0.005.

[15] = Metabolic stability in human liver S9 fraction; format: in vitro ADME; settings: 1 μM compound; for half-life at 1 μM: human, pooled liver S9 fraction
Procedure: For the evaluation of combined phase I and phase II metabolic stability, the compound (1 μM) was incubated with 1 mg/mL pooled liver S9 fraction (XenoTech), 2 mM NADPH, 1 mM UDPGA, 10 mM MgCl2, 5 mM GSH, and 0.1 mM PAPS at 37 °C for 0, 5, 15, 30, and 60 min. The metabolic stabilities of testosterone (1 μM), verapamil (1 μM), and propranolol (1 μM) were determined in parallel to confirm the enzymatic activity of the S9 fraction. The incubation was stopped by precipitation of S9 enzymes with two volumes of cold acetonitrile containing internal standard (150 nM diphenhydramine). Samples were stored on ice for 10 min, and precipitated protein was removed by centrifugation (15 min, 4 °C, 4000 rpm). The concentration of the remaining test compound at the different time points was analyzed by LC-MS/MS (TSQ Quantum Access MAX, Thermo Fisher, Dreieich, Germany) and used to determine half-life (t1/2).

[16] = target: M. tuberculosis DXPS; parameters: method as in PMID 36320685; settings: Morrison inhibition constant, slow-, tight-binding; read-out: Ki* MtDXPS; cited from earlier work
[17] = test system: blood-stage P. falciparum 3D7; settings: Plasmodium falciparum
[18] = test system: P. falciparum NF54; experiment: IDP rescue assay, P. falciparum NF54; format: cell-based; settings: Plasmodium falciparum
Procedure: (§5) Fidock (Columbia University). […] P. falciparum cultures were treated as described in method II. For IDP (Isoprenoids.com) rescue experiments, 125 μM IDP was added to the appropriate wells for the duration of the experiment. The well-described DXR inhibitor FSM was used as a positive control. IC50 values were calculated by nonlinear regression analysis using GraphPad Prism software. All experiments were performed at least in triplicate, and data reported represent the mean ± SD.

[19] = test system: P. falciparum 3D7; experiment: IDP rescue assay, P. falciparum 3D7; format: cell-based; settings: Plasmodium falciparum
Procedure: as §5

[20] = 3D7, read-out: MOCK IC50, MOCK compared with 3D7-DXPS+
[21] = 3D7, read-out: MOCK IC50, MOCK compared with 3D7-TPK+, single measurement
[22] = 95% CI in brackets, read-out: IC50 B
[23] = 3D7, method III (HRP2 assay), drc package of R, read-out: IC50 P. falciparum 3D7 (method III)
[24] = Plasmodium falciparum, 3D7, 3D7, method III (HRP2 assay), drc package of R, read-out: IC50 P. falciparum 3D7 (method III)
[25] = Plasmodium falciparum, 3D7, 3D7, method III, nonlinear regression as in Figure 2, 95% CI in brackets, read-out: IC50 C
[26] = Plasmodium falciparum, 3D7, table of compounds as SMILES with biological activity, strain not given, values match 3D7 method III, read-out: IC50

COC(C(=NO)c1ccc(Cl)cc1)c1ccccc1 (centres unmarked) [CHEMBL581471]
Huh7 inhibition [1]: > 10 µM
EC50 [2]: > 1610 nM
EC50 [3]: > 912 nM

CCN(CC)CCCC(C)Nc1ccnc2cc(Cl)ccc12 (centres unmarked) [Chloroquine, chloroquine diphosphate, reference compound]
IC50 ([4]; 3D7, method I, nM, read-out: IC50 3D7-I): 17.8 ± 3.1 nM
IC50 [5]: 0.19 ± 0.03 µM
IC50 ([6]; Plasmodium falciparum, 3D7, 3D7, method III, nM, read-out: IC50 3D7-III): 2.8 ± 0.7 nM

ON=C(Cc1ccc(Cl)cc1)c1ccc(O)cc1O [compound 2]
IC50 [7, 20]: 110 µM
IC50 [7, 21]: 90.4 µM
IC50 ([4]; 3D7, read-out: IC50 3D7-I): 81000 ± 3000 nM
IC50 ([4]; 3D7, read-out: IC50 A [μM]): 74200 nM
IC50 [8]: 90.4 µM
IC50 [9]: > 50 µM
IC50 [10]: 41 ± 10 µM
IC50 [11, 22]: 43.8 µM
IC50 ([11]; read-out: IC50 3D7-II): 42 ± 4 µM
IC50 [5]: 89 ± 31 µM
MIC [12]: 10 µM (≈ 2.78 µg/mL)
IC50 [13]: 110 µM
IC50 [6, 23]: 94000 ± 8000 nM
IC50 [6, 24]: 93800 ± 8000 nM
IC50 [6, 25]: ~46000 nM
solubility at 5 min [14]: 114 ± 6.7 µM (≈ 31.7 µg/mL)
t1/2 [15]: 29 ± 0.7 min
half-life at 1 μM [15]: 28 min
Ki [16]: 270 ± 20 nM
IC50 [17]: 44 to 74 µM

OCc1cn(Cc2ccc(Cl)c(Cl)c2)c2ccccc12 [compound 3]
IC50 [7, 20]: 17.9 µM
IC50 [7, 21]: 23.8 µM
IC50 ([4]; 3D7, read-out: IC50 3D7-I): 25000 ± 3000 nM
IC50 ([4]; 3D7, read-out: IC50 A [μM]): 21400 nM
IC50 [8]: 21.1 µM
IC50 [9]: 0.8 ± 0.2 µM
IC50 [10]: 15 ± 2 µM
IC50 [11, 22]: 17.1 µM
IC50 ([11]; read-out: IC50 3D7-II): 17 ± 2 µM
IC50 [5]: 13 ± 9 µM
MIC [12]: 10 µM (≈ 3.06 µg/mL)
IC50 [13]: 17.9 µM
IC50 [6, 23]: 24000 ± 6000 nM
IC50 [6, 24]: 23600 ± 6400 nM
IC50 [6, 25]: 7900 nM
half-life at 1 μM [15]: 10 ± 0.4 min
Ki [16]: 1290 ± 200 nM
IC50 [17]: 8 to 21 µM

COc1cc(O)ccc1/C(Cc1ccc(N)cc1)=N/O [compound 4, (E)-2-(4-Aminophenyl)-1-(4-hydroxy-2-methoxyphenyl)ethan-1-one oxime]
IC50 [5]: 94 ± 16 µM
IC50 [6, 24]: > 111000 nM
Max. solubility [14]: 202.6 ± 1.6 µM
solubility at 5 min [14]: ~200 µM (≈ 54.5 µg/mL)

Nc1ccc(C/C(=N\O)c2ccc(O)cc2O)cc1 [compound 5, (E)-2-(4-Aminophenyl)-1-(2,4-dihydroxyphenyl)ethan-1-one oxime]
IC50 [5]: > 111 µM
IC50 [6, 24]: > 111000 nM
Max. solubility [14]: 193.6 ± 95.7 µM
solubility at 5 min [14]: ~200 µM (≈ 51.7 µg/mL)

COc1ccc(/C(Cc2ccc(N)cc2)=N/O)c(OC)c1 [compound 6, (E)-2-(4-Aminophenyl)-1-(2,4-dimethoxyphenyl)ethan-1-one oxime]
IC50 [5]: > 111 µM
IC50 [6, 24]: > 111000 nM
solubility at 5 min [14]: 119 ± 27.4 µM (≈ 34.2 µg/mL)

Nc1ccc(C(Cc2ccc(Cl)cc2)=NO)c(O)c1 [compound 10]
IC50 [9]: 50 to 100 µM
IC50 [5]: 24 ± 4 µM
IC50 [6, 24]: 38000 ± 11000 nM
IC50 [6, 26]: 38200 nM
half-life at 1 μM [15]: 56 ± 0.4 min

Oc1ccc(C(O)Cc2ccc(Cl)cc2)c(O)c1 (centres unmarked) [compound 13, 4-(2-(4-Chlorophenyl)-1-hydroxyethyl)benzene-1,3-diol]
IC50 [9]: > 100 µM
cytotoxicity towards Hep G2 cells ([9]; at 100 μM): no cytotoxicity
IC50 [5]: 28 ± 13 µM
IC50 [6, 23]: 10000 ± 2000 nM
IC50 [6, 24]: 9900 ± 1700 nM
half-life at 1 μM [15]: 98 ± 10 min

OCc1cn(Cc2ccc(Cl)c(Cl)c2)c2cccc(F)c12 [compound 33, (1-(3,4-Dichlorobenzyl)-4-fluoro-1H-indol-3-yl)methanol]
IC50 ([18]; NF54, 72 h, + IDP (125 μM)): 2200 nM
IC50 ([18]; NF54, without IDP): 2400 ± 600 nM
IC50 [9]: 0.79 ± 0.37 µM
IC50 [10]: 3 ± 1 µM
IC50 ([11]; read-out: IC50 3D7-II): 3 µM
IC50 [5]: 3 µM
IC50 ([19]; 3D7, 72 h, + IDP (125 μM)): 3100 nM
IC50 ([19]; 3D7, without IDP): 2700 ± 300 nM
IC50 [6, 23]: 2000 nM
IC50 [6, 24]: 3000 nM
IC50 [6, 26]: 2400 nM

Reference: article PMC10928712, “High Target Homology Does Not Guarantee Inhibition: Aminothiazoles Emerge as Inhibitors of Plasmodium falciparum” (ACS Infectious Diseases, 2024)
